According to PMC2666621 (Current drug metabolism, 2009):

Columns and labels:
[1] = target: T1, CHLαGcT (cholesterol α-glucosyltransferase; HP0421) (Helicobacter pylori, UniProt O25175); assay: product inhibition, Lineweaver-Burk; format: biochemical; settings: varied UDP-Glc; competitive with UDP-Glc
[2] = target: T1, CHLαGcT (cholesterol α-glucosyltransferase; HP0421); assay: glucosyltransferase inhibition assay; format: biochemical; settings: UDP-Glc 3.6 μM, cholesterol 400 μM (so in the source); cited from earlier work

Structure (SMILES): O=c1ccn([C@@H]2O[C@H](COP(=O)(O)OP(=O)(O)O)[C@@H](O)[C@H]2O)c(=O)[nH]1 [UDP]
- product inhibition, Lineweaver-Burk [1]: inhibition profile of UDP in the presence of UDP-Glc intersected at the Y-axis, indicating competitive inhibition

Structure (SMILES): CCCCCCCCO[C@H]1O[C@H](CO)[C@H](O)[C@H](O[C@@H]2O[C@H](CO)[C@H](O)[C@H](O[C@]3(C(=O)O)C[C@H](O)[C@@H](NC(C)=O)[C@H]([C@H](O)[C@H](O)CO)O3)[C@H]2O)[C@H]1NC(C)=O [NeuAcα2→3Galβ1→3GalNAcα1→octyl]
- IC50 [2]: 1.09 mM

Structure (SMILES): CC(=O)N[C@H]1[C@@H](Oc2ccc([N+](=O)[O-])cc2)O[C@H](CO)[C@H](O)[C@@H]1O[C@@H]1O[C@H](CO)[C@H](O)[C@H](O)[C@H]1O [Galβ1→3GalNAcα1→p-nitrophenol]
- IC50 [2]: 7.49 mM

Structure (SMILES): CCCCCCCCO[C@H]1O[C@H](CO[C@@H]2O[C@H](CO)[C@@H](O[C@@H]3O[C@H](CO)[C@H](O[C@H]4O[C@H](CO)[C@@H](O)[C@H](O)[C@H]4NC(C)=O)[C@H](O)[C@H]3O)[C@H](O)[C@H]2NC(C)=O)[C@H](O)[C@H](O[C@@H]2O[C@H](CO)[C@H](O)[C@H](O)[C@H]2O)[C@H]1NC(C)=O [GlcNAcα1→4Galβ1→4GlcNAcβ1→6(Galβ1→3)GalNAcα1→octyl]
- IC50 [2]: 0.47 mM

Structure (SMILES): CC(=O)N[C@H]1[C@H](OC[C@H]2O[C@H](Oc3ccc([N+](=O)[O-])cc3)[C@H](NC(C)=O)[C@@H](O[C@@H]3O[C@H](CO)[C@H](O)[C@H](O)[C@H]3O)[C@H]2O)O[C@H](CO)[C@@H](O)[C@@H]1O [GlcNAcβ1→6(Galβ1→3)GalNAcα1→p-nitrophenol]
- IC50 [2]: 2.21 mM
